We go through four molecules from PubChem BioAssay (NCI).

Molecules are shown by their SMILES.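 All cell lines were grown in 96-well plates and treated with compound for 48 hours. TGI: concentration producing complete growth inhibition.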

Common to all, as to test: NCI tumour cell line growth inhibition, 48 h
Assay [1] relates to UO-31 renal.
In assay [2] the test system is RXF 393 renal.
Assay [3] has as its system LXFL 529 NSCLC.
In assay [4] the test system is DLD-1 colon.
In assay [5] the test system is LOX IMVI melanoma.
For assay [6], the system named is OVCAR-4 ovarian.
Assay [7] has as its system M19-MEL melanoma.
The subject of assay [8] is HOP-62 NSCLC.
Assay [9] deals with XF 498 CNS.
Assay [10] deals with RPMI-8226 leukemia.
Assay [11] concerns MCF7 breast.
The test system of assay [12] is SF-295 CNS.

In the case of `COS(=O)c1cc(Cl)cc(Cl)c1O` (stereo not given), the TGI in assay [1], in assay [2], in assay [3], in [4], in assay [5] and in assay [6] was greater than 100 µM in each case. Moreover, the TGI in assay [7], in [8] and in assay [9] was greater than 100 µM each time.
On to `CCN(CC)CCCNc1ccc2nnn3c4ccc(O)cc4c(=O)c1c23`, for which the TGI in assay [1] amounted to 6.27 µM; in assay [2], 15 µM; in assay [3], 21.2 µM; in [10], 32.2 µM; in assay [4], 19 µM; in assay [5], 13.1 µM. Besides, the TGI in assay [6] came out at 19.3 µM; in [7], 26.8 µM; in assay [8] it was 22.6 µM; in assay [9], 28.9 µM; in [11], 34 µM; in assay [12], 22.8 µM.
On to `NC(=O)COc1ccccc1`, for which the TGI in [1], in [2], in assay [3], in assay [10], in assay [4] and in assay [5] was greater than 100 µM each time. The TGI in assay [6], in assay [7], in [8], in assay [9] and in assay [12] was greater than 100 µM in each case.
On to `CC1(C)[C@@H]2C[C@H]1c1cnc(-c3ccccn3)cc1C2[C@@H]1c2cc(-c3ccccn3)ncc2[C@@H]2C[C@H]1C2(C)C` (stereo not given in full), for which the TGI in [1] is 85.9 µM; in assay [2], greater than 100 µM; in [10], greater than 100 µM; in assay [5], greater than 100 µM; in [6], 85.3 µM; in [8], greater than 100 µM. The TGI in assay [11] and in [12] was greater than 100 µM throughout.
